In patent US20190367516A1 (Bayer Pharma Aktiengesellschaft, priority 2015, published 2019) one finds EC50, Emax and Efficiency data, which are given here for 28 compounds.

For this assay, the target named is T1, human M2 receptor (Homo sapiens, UniProt P08172).
T1 sequence (P08172 1-466): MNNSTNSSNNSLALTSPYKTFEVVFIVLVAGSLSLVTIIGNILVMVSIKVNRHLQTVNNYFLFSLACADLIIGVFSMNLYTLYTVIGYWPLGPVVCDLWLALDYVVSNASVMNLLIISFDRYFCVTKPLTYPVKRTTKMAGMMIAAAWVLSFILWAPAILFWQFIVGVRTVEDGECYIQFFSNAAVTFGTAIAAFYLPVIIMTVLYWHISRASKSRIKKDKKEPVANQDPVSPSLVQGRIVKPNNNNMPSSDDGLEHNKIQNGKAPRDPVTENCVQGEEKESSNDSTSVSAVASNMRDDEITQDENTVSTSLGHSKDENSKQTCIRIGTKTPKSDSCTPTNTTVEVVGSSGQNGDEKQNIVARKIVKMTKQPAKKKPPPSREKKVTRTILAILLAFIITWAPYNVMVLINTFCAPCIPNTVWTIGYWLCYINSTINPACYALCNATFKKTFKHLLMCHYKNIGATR
The following applies: M2-GIRK1/4 reporter cells; for pEC50: Receptor activity EC50, allosteric potency at EC20 acetylcholine, in some cases mean of two or more determinations; for Emax: read-out: Efficiency, boosting of the acetylcholine effect at EC20 acetylcholine concentration; for Efficiency: boosting of the acetylcholine effect at EC20 acetylcholine concentration.

The structures appear in SMILES notation. pEC50: −log10 of the molar value.

In general, pEC50 refers to −log10 of the EC50, conventionally taken in molar units.

As to `CC(NC(=O)c1cn(-c2c(F)cc(F)cc2F)c2nc(N3C[C@@H](C)NC3=O)ccc2c1=O)C(F)(F)C(F)(F)F` (single isomer, unassigned) [Example 459], the pEC50 is 8.40 and the Emax was 95%. Regarding `CC(NC(=O)c1cn(-c2c(F)cc(F)cc2F)c2nc(N3C[C@@H](C)NC3=O)ccc2c1=O)C(F)(F)C(F)(F)F` (single isomer, unassigned) [Example 460], the pEC50 was 8.30 and the Efficiency came out at 98.0%. Turning to `O=C(N[C@@H](C1CC1)C(F)(F)F)c1cn(-c2c(F)cc(F)cc2F)c2nc(N3CCOC(CO)C3)ccc2c1=O` (single isomer, unassigned) [Example 464, N-[(1 S)-1-Cyclopropyl-2,2,2-trifluoroethyl]-7-[2-(hydroxymethyl)morpholin-4-yl]-4-oxo-1-(2,4,6-trifluorophenyl)-1,4-dihydro-1,8-naphthyridine-3-carboxamide], the pEC50 was 6.89 and the Emax turned out to be 82.5%.

Take `O=C(N[C@@H](C1CC1)C(F)(F)F)c1cn(-c2c(F)cc(F)cc2F)c2nc(N3CCOC(CO)C3)ccc2c1=O` (single isomer, unassigned) [Example 465, N-[(1 S)-1-Cyclopropyl-2,2,2-trifluoroethyl]-7-[2-(hydroxymethyl)morpholin-4-yl]-4-oxo-1-(2,4,6-trifluorophenyl)-1,4-dihydro-1,8-naphthyridine-3-carboxamide]: the pEC50 is 7.12 and the Efficiency came to 89.0%.

As to `CCC(NC(=O)c1cn(-c2c(F)cc(F)cc2F)c2nc(N3C[C@@H](O)CC3=O)ccc2c1=O)C(C)C` (single isomer, unassigned) [Example 485], the pEC50 was 8.22 and the Emax came out at 100%. With `CCC(NC(=O)c1cn(-c2c(F)cc(F)cc2F)c2nc(N3C[C@@H](O)CC3=O)ccc2c1=O)C(C)C` (single isomer, unassigned) [Example 486], the pEC50 was 8.40 and the Efficiency is listed as 100.0%. Take `CC(NC(=O)c1cn(-c2c(F)cc(F)cc2F)c2nc(N3C[C@@H](O)CC3=O)ccc2c1=O)(C1CC1)C(F)(F)F` (single isomer, unassigned) [Example 509]: the pEC50 was 8.15 and the Emax is 88%. On the same counts, the results for `O=C(NC(CC(F)(F)F)C1CC1)c1cn(-c2c(F)cc(F)cc2F)c2nc(N3C[C@@H](O)CC3=O)ccc2c1=O` (single isomer, unassigned) [Example 513] are 8.00 and 91%. In the case of `CC(NC(=O)c1cn(-c2c(F)cc(F)cc2F)c2nc(N3C[C@@H](O)CC3=O)ccc2c1=O)C(F)(F)C(F)(F)F` (single isomer, unassigned) [Example 531], the negative logarithm of the EC50 (pEC50) is 8.05 and the Efficiency is on record as 97.0%.

In the case of `O=C(NC(c1ccccc1Cl)C(F)(F)F)c1cn(-c2c(F)cc(F)cc2F)c2nc(N3C[C@@H](O)CC3=O)ccc2c1=O` (single isomer, unassigned) [Example 533], the pEC50 was 7.62 and the Emax came to 100%.

Turning to `O=C(NC(c1ccccc1Cl)C(F)(F)F)c1cn(-c2c(F)cc(F)cc2F)c2nc(N3C[C@@H](O)CC3=O)ccc2c1=O` (single isomer, unassigned) [Example 534], the negative-log EC50 (pEC50) was 8.22 and the Efficiency was 100.0%. Consider `O=C(N[C@@H](C1CC1)C(F)(F)F)c1cn(-c2c(F)cc(F)cc2Cl)c2nc(N3C[C@@H](O)[C@H](O)C3)ccc2c1=O` (single isomer, unassigned) [Example 547], for which the pEC50 was 6.92 and the Emax was 90%. Take `CCC(NC(=O)c1cn(-c2ccc(F)cc2F)c2nc(N3C[C@@H](O)CC3=O)ccc2c1=O)C(F)(F)C(F)(F)F` (single isomer, unassigned) [Example 558]: the pEC50 is 7.66 and the Efficiency worked out at 100.0%. `O=C(NC(c1ccccc1Cl)C(F)(F)F)c1cn(-c2c(F)cc(F)cc2F)c2nc(N3CCNC3=O)ccc2c1=O` (single isomer, unassigned) [Example 564, N-[1-(2-Chlorophenyl)-2,2,2-trifluoroethyl]-4-oxo-7-(2-oxoimidazolidin-1-yl)-1-(2,4,6-trifluorophenyl)-1,4-dihydro-1,8-naphthyridine-3-carboxamide]: the negative logarithm of the EC50 (pEC50) was 7.38 and the Emax was 89%. In the case of `O=C(NC(c1ccccc1Cl)C(F)(F)F)c1cn(-c2c(F)cc(F)cc2F)c2nc(N3CCNC3=O)ccc2c1=O` (single isomer, unassigned) [Example 565, N-[1-(2-Chlorophenyl)-2,2,2-trifluoroethyl]-4-oxo-7-(2-oxoimidazolidin-1-yl)-1-(2,4,6-trifluorophenyl)-1,4-dihydro-1,8-naphthyridine-3-carboxamide], the pEC50 was 8.00.

Take `CC[C@H](NC(=O)c1cn(-c2c(F)cc(F)cc2Cl)c2nc(N3C[C@@H](O)[C@H](O)C3)ccc2c1=O)C(F)(F)F` (single isomer, unassigned) [Example 567]: the pEC50 was 6.85 and the Emax is 80%.

On to `CC[C@H](NC(=O)c1cn(-c2c(F)cc(F)cc2Cl)c2nc(N3C[C@@H](O)[C@H](O)C3)ccc2c1=O)C(F)(F)F` (single isomer, unassigned) [Example 568], for which the pEC50 is 7.96 and the Efficiency was 100.0%. `CC(C)(CC(F)(F)F)NC(=O)c1cn(-c2c(F)cc(F)cc2F)c2nc(N3CC(O)C4(CC4)C3)ccc2c1=O` (single isomer, unassigned) [Example 570, 7-[7-Hydroxy-5-azaspiro[2.4]hept-5-yl]-4-oxo-N-(4,4,4-trifluoro-2-methylbutan-2-yl)-1-(2,4,6-trifluorophenyl)-1,4-dihydro-1,8-naphthyridine-3-carboxamide]: the pEC50 was 7.25 and the Emax was determined as 100%.

Take `CC(C)(CC(F)(F)F)NC(=O)c1cn(-c2c(F)cc(F)cc2F)c2nc(N3CC(O)C4(CC4)C3)ccc2c1=O` (single isomer, unassigned) [Example 571, 7-[7-Hydroxy-5-azaspiro[2.4]hept-5-yl]-4-oxo-N-(4,4,4-trifluoro-2-methylbutan-2-yl)-1-(2,4,6-trifluorophenyl)-1,4-dihydro-1,8-naphthyridine-3-carboxamide]: the pEC50 was 7.92.

For `CCC(COC(F)(F)F)NC(=O)c1cn(-c2c(F)cc(F)cc2F)c2nc(N3C[C@@H](O)[C@H](O)C3)ccc2c1=O` (single isomer, unassigned) [Example 577], the negative logarithm of the EC50 (pEC50) was 7.70 and the Emax was found to be 100%.

Regarding `CO[C@@H]1CN(c2ccc3c(=O)c(C(=O)N[C@@H](C4CC4)C(F)(F)F)cn(-c4c(F)cc(F)cc4F)c3n2)C[C@H]1O` (single isomer, unassigned) [Example 583], the pEC50 was 7.72 and the Emax was 100%. For `CO[C@@H]1CN(c2ccc3c(=O)c(C(=O)N[C@@H](C4CC4)C(F)(F)F)cn(-c4c(F)cc(F)cc4F)c3n2)C[C@H]1O` (single isomer, unassigned) [Example 584, N-[(1 S)-1-Cyclopropyl-2,2,2-trifluoroethyl]-7-[trans-3-hydroxy-4-methoxypyrrolidin-1-yl]-4-oxo-1-(2,4,6-trifluorophenyl)-1,4-dihydro-1,8-naphthyridine-3-carboxamide], the pEC50 was 7.80 and the Efficiency stood at 98.0%. With `O=C(N[C@@H](C1CC1)C(F)(F)F)c1cn(-c2c(F)cc(F)cc2F)c2nc(N3CC(O)C4(CC4)C3)ccc2c1=O` (single isomer, unassigned) [Example 601], the pEC50 is 7.14 and the Emax amounted to 100%. As for `O=C(N[C@@H](C1CC1)C(F)(F)F)c1cn(-c2c(F)cc(F)cc2F)c2nc(N3CC(O)C4(CC4)C3)ccc2c1=O` (single isomer, unassigned) [Example 602], the negative logarithm of the EC50 (pEC50) is 7.64 and the Efficiency is given as 91.5%. On the same counts, the results for `O=C(NC(CC(F)(F)F)C(F)(F)F)c1cn(-c2c(F)cc(F)cc2F)c2nc(N3C[C@@H](O)CC3=O)ccc2c1=O` (single isomer, unassigned) [Example 608] are 7.66 and 100.0%.

Consider `O=C(N[C@@H](C1CC1)C(F)(F)F)c1cn(-c2c(F)cc(F)cc2F)c2nc(N3CC[C@@H](O)[C@H](O)C3)ccc2c1=O` (single isomer, unassigned) [Example 616], for which the pEC50 is 7.43 and the Emax worked out at 90.5%.

In turn, `O=C(N[C@@H](C1CC1)C(F)(F)F)c1cn(-c2c(F)cc(F)cc2F)c2nc(N3CC[C@@H](O)[C@H](O)C3)ccc2c1=O` (single isomer, unassigned) [Example 617, N-[(1 S)-1-Cyclopropyl-2,2,2-trifluoroethyl]-7-[trans-3,4-dihydroxypiperidin-1-yl]-4-oxo-1-(2,4,6-trifluorophenyl)-1,4-dihydro-1,8-naphthyridine-3-carboxamide] showed a negative logarithm of the EC50 (pEC50) of 7.02 and an Efficiency of 98.0%.

Take `CC[C@H](NC(=O)c1cn(-c2c(F)cc(F)cc2F)c2nc(N3CC(O)C4(CC4)C3)ccc2c1=O)C(F)(F)F` (single isomer, unassigned) [Example 620]: the pEC50 is 7.33 and the Emax was determined as 100%.
